{"source": "patent US6949553B2", "about": "“Aliphatic compounds, their synthesis method, and utilization of the same” (Maruha Corporation, priority 2001, dated 2005)", "key": {"platelets [1]": {"test_system": "platelets", "assay": "Collagen-induced in vitro platelet aggregation (rabbit PRP, transmittance)", "format": "cell-based", "details": "Oryctolagus cuniculus, Platelet, read-out: 50% Inhibition Point for Platelet Aggregation, IC50", "procedure": "Collagen-induced in vitro Platelet Aggregation\nIt was studied whether the compounds of the present invention would inhibit platelet aggregation induced by collagen.\nThese compounds were each diluted with physiological saline to end concentrations of 1×10^−7M, 3×10^−7M, 1×10^−6M, 3×10^−6M, 1×10^−5M, 3×10^−5M and 1×10^−4M.\nIndomethacin was used as a positive control. Indomethacin was dissolved in methanol, and then diluted with physiological saline to end concentrations of 1×10^−6M, 3×10^−6M and 1×10^−5M.\nPhysiological saline was used as a negative control.\nThe tube was centrifuged at 900 rpm for 10 minutes at room temperature to separate the supernatant (PRP, platelet rich plasma fraction). The residue was further centrifuged for 15 minutes at 2,500 rpm to obtain the supernatant (PPP, platelet poor plasma fraction).\nPPP (platelet poor plasma fraction) was placed in a cuvette, and the cuvette was mounted in a 37° C. incubator for PPP of an aggregometer (Hematracer 240 12ch, manufactured by MCM). Then, 200 μl of PRP (platelet rich plasma fraction) was added into a cuvette, and the cuvette was mounted in a reactor for PRP. With stirring by a magnetic stirrer, the transmittance of PPP was corrected to T650 nm=100%, and the transmittance of PRP was corrected to T650 nm=0%, by automatic adjustment for 30 seconds.\nThe study substance (20 μl) at a predetermined concentration was added into the cuvette and, 30 seconds later, 20 μl (end concentration 0.2 μg/ml) of collagen (produced by MCM) was added. Subsequent changes in the transmittance were recorded for 5 minutes. When the platelets are aggregated, the transmittance increases. When aggregation peaked, the transmittance T at maximum aggregation was compared with the transmittance T0 of the negative control, and the aggregation inhibition rate was expressed as percentage using the following equation: Aggregation inhibition rate=(1−T/T0)×100\nFrom an aggregation inhibition curve obtained, a regression equation was derived by approximation of the linear type."}, "platelets [2]": {"test_system": "platelets", "assay": "In vitro platelet aggregation by various inducers, rat platelets", "format": "cell-based", "details": "Rattus norvegicus", "excerpt": "Next, the suppression of platelet aggregation by the compounds of the present invention was studied in the same manner as described above with the use of not only collagen, but also arachidonic acid, ADP, thrombin, serotonin, epinephrine and U46619 (pseudo-thromboxane A2 substance) as inducers.\nAs platelets, platelets prepared from rats and guinea pigs as well as rabbits were also used.\nCollagen and ADP were purchased from MCM, and used in accordance with the method of preparation described in the manuals attached to the purchased products. Serotonin, epinephrine and thrombin were purchased from Sigma, and used as solutions in physiological saline for injection (Otsuka Pharmaceutical Factory). Arachidonic acid was purchased from Cayman, and dispersed in physiological saline for injection (Otsuka Pharmaceutical Factory) with the use of an immersion type ultrasonic oscillator (US150, NIPPON SEIKI, tip end diameter ca. 3.5 mm). U46619 (pseudo-thromboxane substance) was purchased from FUNAKOSHI, and dissolved in physiological saline for injection (Otsuka Pharmaceutical Factory) when used.\nCollagen (0.1 to 1 μg/ml), arachidonic acid (1 mM), ADP (1 μM), thrombin (1 U/ml), serotonin (100 μM), epinephrine (100 to 200 μM), and U46619 (3 μM) were used.\nIndomethacin was used as a positive control for measuring the suppression of platelet aggregation induced by collagen."}, "mice": {"test_system": "mice", "assay": "Collagen-induced mouse sudden death model", "format": "in vivo", "details": "30 μg/kg intravenous 1 hour before 37.5 mg/kg collagen; survival one hour later", "procedure": "As a preliminary study of the effect of the compounds of the present invention on an in vivo pathophysiological model, it was investigated whether the compound of the present invention would suppress collagen-induced mouse sudden death. In this model, pulmonary capillaries are obstructed by a large amount of collagen, and a sudden death is caused by oxygen deficiency.\nOne hour after a solvent (physiological saline) or 30 μg/kg of Compound 2 was intravenously administered to mice, 37.5 mg/kg of collagen was administered to the caudal vein. One hour later, the survival rate was compared between the groups."}, "[3]": {"test_system": "rat lauric acid-induced leg necrosis", "assay": "Rat lauric acid-induced peripheral circulatory disorder model (leg necrosis score)", "format": "in vivo", "details": "for leg necrosis score (in words): iv once daily 14 days, 10, 30 or 100 μg/kg; for alleviation of the disorder (in words): prior administration", "procedure": "A rat lauric acid-induced peripheral circulatory disorder model, which is widely used as a peripheral circulatory disorder model, was used to investigate the effect of the compounds of the present invention on an in vivo pathophysiological model of circulatory disorder.\nLauric acid (1.5 mg/animal) was administered into the rat femoral artery to induce leg necrosis.\nA solvent (physiological saline) was administered as a control.\nThe progress of foot/leg lesions was observed 3, 7, 10 and 14 days after lauric acid administration, and evaluated by the following leg necrosis score. The score was given to each of the digits, and the sum of the scores of the respective digits was taken as a lesion index. If the disorder extended to the plantar portion, 5 points were further added.\nScore 1: Blackening is limited to the tiptoe.\nScore 2: Blackening extends to the digital portion.\nScore 3: Necrosis of the digit.\nScore 4: Loss of the digit.\nA solvent (physiological saline) was similarly administered as a control.\nThe progress of foot/leg lesions was observed 3, 7, 10 and 14 days after lauric acid administration, and evaluated by the above leg necrosis score.\nA test was conducted in the same manner as in (2) above."}, "[4]": {"test_system": "neutrophils and vascular endothelial cells", "assay": "Pseudo-blood vessel in vitro inflammation model (TNFα, neutrophil migration through endothelial cell layer)", "format": "cell-based, bovine", "details": "30, 3 or 0.3 μM, TNFα 50 ng/ml", "method": "A layer of bovine endothelial cells was adhered to the bottom surface of the membrane, and cultured for 80 minutes at 37° C. in 5% CO2. Then, a suspension of fluorescence-labeled neutrophils was added to the upper chamber of the transwell. Simultaneously, TNFα was suspended in the cell suspension in the upper chamber to an end concentration of 50, 25 or 17 ng/ml.\nThat is, in the above model, the phenomena that neutrophils pass from the upper chamber through the vascular endothelial cell layer into the lower chamber, and neutrophils adhere to the endothelial cell layer mimic a state where in response to TNFα within the blood vessel, neutrophils migrate from within the blood vessel to the site of inflammation.\nIn the same manner as described above, the number of neutrophils passing from the upper chamber through the vascular endothelial cell layer into the lower chamber, and the number of neutrophils adhering to the endothelial cell layer were measured. Based on these numbers, the neutrophil migration rate (%) was calculated. The neutrophil migration rate was expressed as the relative value (%) of the number of the migrating neutrophils in the drug treatment group with respect to the number of the migrating neutrophils in the negative control group (physiological saline)."}, "[5]": {"test_system": "rat middle cerebral artery obstruction", "assay": "Photosensitization-induced rat middle cerebral artery obstruction model", "format": "in vivo", "details": "1 mg/kg intravenous after laser irradiation, evaluated 24 hours after", "procedure": "A photosensitization-induced rat middle cerebral artery obstruction model, widely used as a cerebral infarction acute phase/chronic phase model, was used to investigate the effect of the compounds of the present invention on an in vivo circulatory disorder pathophysiological model.\nAfter rats were intravenously injected with a rose bengal dye (20 mg/kg), the middle cerebral artery was irradiated with green laser light (wavelength 540 nm) for 10 minutes to induce arterial infarction due to active oxygen species. After completion of irradiation with laser light, Compound 2 was intravenously administered.\nA solvent (physiological saline) was intravenously administered as a control.\nThe progress of cerebral infarction was observed 24 hours after laser light irradiation. A transverse section (1 mm in thickness) of the brain exenterated was prepared, and soaked in triphenyltetrazolium to stain living tissue red. An infarct was white, and was clearly distinguished from the living tissue. Thus, the area of the infarct was measured, and the infarct rate (the proportion of the area of the infarct to the transverse section of the brain) was calculated for use in evaluation."}}, "data": [{"molecule": "CC/C=C\\C/C=C\\C/C=C\\C/C=C\\C/C=C\\C/C=C\\CCC(=O)NCCC1CCCN1C", "note": "(racemic) [Compound 2, (4Z,7Z,10Z,13Z,16Z,19Z)-N-[2-(1-methylpyrrolidin-2-yl)ethyl]docosahexaenoamide]", "values": [{"measurement": "IC50", "setting": "platelets [1]", "result": 1.5, "unit": "µM"}, {"measurement": "IC50", "setting": "platelets [2]; read-out: 50% aggregation inhibition point, collagen-induced aggregation, rat platelets", "result": "~11", "unit": "µM"}, {"measurement": "IC50", "setting": "platelets [2]; read-out: 50% inhibition point, IC50, for in vitro platelet aggregation, inducer ADP (1 μM), rat platelets", "result": "> 100", "unit": "µM"}, {"measurement": "IC50", "setting": "platelets [2]; read-out: 50% inhibition point, IC50, for in vitro platelet aggregation, inducer collagen (0.1 to 1 μg/ml), rat platelets", "result": "11 ± 7", "unit": "µM"}, {"measurement": "Survival rate", "setting": "mice", "result": "7/10"}, {"measurement": "leg necrosis score (in words)", "setting": "[3]; administration after induction: first dose 6 hours after lauric acid", "result": "improve the leg necrosis score dose-dependently"}, {"measurement": "leg necrosis score (in words)", "setting": "[3]; administration started 1 hour before lauric acid", "result": "improve the leg necrosis score dose-dependently"}, {"measurement": "alleviation of the disorder (in words)", "setting": "[3]; dose of 10 μg/kg", "result": "tended to alleviate the disorder"}, {"measurement": "alleviation of the disorder (in words)", "setting": "[3]; doses of 30 and 100 μg/kg", "result": "alleviated the disorder significantly"}, {"measurement": "neutrophil passage through vascular endothelial cell layer (in words)", "setting": "[4]", "result": "suppressed neutrophil passage dose-dependently"}, {"measurement": "cerebral infarction, infarct rate (in words)", "setting": "[5]", "result": "ameliorate cerebral infarction"}]}]}
